Measured values taken from ChEMBL document CHEMBL1201862, “PubChem BioAssay data set” (2004).
Calls of active or inactive are those of the source.

Assays:
[1] = biological target: T1, Zinc finger protein mex-5 (Caenorhabditis elegans, UniProt Q9XUB2); test: potency of MEX-5 RNA-binding blockers – biochemical, C. elegans, fluorescence polarization, dose response (AID 1960)
T1 sequence (Q9XUB2 whole entry): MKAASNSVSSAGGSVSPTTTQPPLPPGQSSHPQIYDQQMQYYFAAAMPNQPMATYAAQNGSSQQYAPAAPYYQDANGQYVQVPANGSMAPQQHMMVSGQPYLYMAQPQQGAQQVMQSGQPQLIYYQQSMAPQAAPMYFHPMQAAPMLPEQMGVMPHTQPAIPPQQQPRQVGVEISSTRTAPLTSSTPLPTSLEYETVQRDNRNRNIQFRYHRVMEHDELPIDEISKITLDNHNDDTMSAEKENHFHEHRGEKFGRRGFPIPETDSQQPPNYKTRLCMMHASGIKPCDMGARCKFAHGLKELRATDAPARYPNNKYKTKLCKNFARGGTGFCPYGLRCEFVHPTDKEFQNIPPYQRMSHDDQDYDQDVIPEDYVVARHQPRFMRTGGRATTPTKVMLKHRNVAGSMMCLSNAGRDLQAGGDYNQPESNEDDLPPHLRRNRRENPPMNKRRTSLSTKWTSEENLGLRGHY

[2] = biological target: T2, RNA-binding protein pos-1 (Caenorhabditis elegans, UniProt G5EF15); test: disruptors of C. elegans POS-1 RNA interaction – biochemical, fluorescence polarization, dose response (AID 1964);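 also: purified POS-1 fused to maltose binding protein made in E. coli; potency of compounds blocking POS-1 binding to fluorescent RNA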
T2 sequence (G5EF15 whole entry): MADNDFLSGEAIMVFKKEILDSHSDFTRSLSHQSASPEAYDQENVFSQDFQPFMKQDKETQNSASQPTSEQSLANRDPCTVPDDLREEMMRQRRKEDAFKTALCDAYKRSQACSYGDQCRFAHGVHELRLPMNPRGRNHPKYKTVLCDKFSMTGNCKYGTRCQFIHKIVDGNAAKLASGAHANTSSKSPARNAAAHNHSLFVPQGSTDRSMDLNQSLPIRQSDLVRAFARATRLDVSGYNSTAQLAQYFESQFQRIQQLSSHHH

Streptococcus = test: GAS UMAA2166 growth inhibition – luminescence, BacTiterGlo, counter-screen for streptokinase expression inhibitor project, dose response (AID 1915); type: functional, organism-based;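 also: potency for reduction of bacterial viability or growth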
Streptokinase A = biological target: T3, Streptokinase A (Streptococcus pyogenes serotype M1, UniProt P10520); test: viability-normalized secreted streptokinase activity reduction – plasminogen activation absorbance, OD405, dose response (AID 1914); type: functional, Streptococcus pyogenes M1 GAS;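 also: secreted streptokinase activity via plasminogen activation per viability signal from cell pellet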
T3 sequence (P10520 whole entry): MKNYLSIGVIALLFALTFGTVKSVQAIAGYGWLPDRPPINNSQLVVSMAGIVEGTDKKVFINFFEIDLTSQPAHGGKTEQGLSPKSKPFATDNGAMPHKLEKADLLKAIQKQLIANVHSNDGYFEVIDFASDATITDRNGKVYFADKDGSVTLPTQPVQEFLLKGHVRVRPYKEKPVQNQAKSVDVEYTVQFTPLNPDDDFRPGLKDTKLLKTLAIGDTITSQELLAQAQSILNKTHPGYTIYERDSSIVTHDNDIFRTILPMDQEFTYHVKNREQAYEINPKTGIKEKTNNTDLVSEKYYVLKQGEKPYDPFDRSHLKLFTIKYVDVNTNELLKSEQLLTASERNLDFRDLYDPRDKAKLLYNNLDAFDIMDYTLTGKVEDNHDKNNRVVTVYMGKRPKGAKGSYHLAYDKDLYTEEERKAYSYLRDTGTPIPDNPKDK

[3] = test system: Streptococcus sp. 'group A'; test: Streptococcus pyogenes SK(-)GAS viability under kanamycin – luminescence, BacTiterGlo, confirmation, counter-screen for streptokinase expression inhibitor project, dose response (AID 1900); type: functional, organism-based
Cytochrome P450 1A2 = biological target: T4, Cytochrome P450 1A2 (Homo sapiens, UniProt P05177);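 also: PubChem cytochrome P450 panel assay, CYP1A2 panel member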
T4 sequence (P05177 whole entry): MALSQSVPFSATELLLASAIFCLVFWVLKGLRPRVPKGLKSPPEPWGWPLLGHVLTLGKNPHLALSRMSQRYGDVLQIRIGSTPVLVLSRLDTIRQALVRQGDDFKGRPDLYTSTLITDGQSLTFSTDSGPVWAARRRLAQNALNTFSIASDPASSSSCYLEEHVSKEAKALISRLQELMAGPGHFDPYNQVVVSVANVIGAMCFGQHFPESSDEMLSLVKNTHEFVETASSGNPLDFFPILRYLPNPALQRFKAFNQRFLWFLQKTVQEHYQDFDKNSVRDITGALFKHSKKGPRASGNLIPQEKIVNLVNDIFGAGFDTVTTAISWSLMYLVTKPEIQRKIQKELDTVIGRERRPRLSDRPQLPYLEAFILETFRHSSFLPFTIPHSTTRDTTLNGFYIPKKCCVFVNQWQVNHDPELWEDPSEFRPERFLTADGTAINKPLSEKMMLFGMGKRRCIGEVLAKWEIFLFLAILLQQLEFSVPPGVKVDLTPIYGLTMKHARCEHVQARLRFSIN

Cytochrome P450 2D6 = Cytochrome P450 2D6 (Homo sapiens, UniProt P10635);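 also: CYP2D6 member of a cytochrome P450 panel assay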
Sequence of Cytochrome P450 2D6 (P10635 whole entry): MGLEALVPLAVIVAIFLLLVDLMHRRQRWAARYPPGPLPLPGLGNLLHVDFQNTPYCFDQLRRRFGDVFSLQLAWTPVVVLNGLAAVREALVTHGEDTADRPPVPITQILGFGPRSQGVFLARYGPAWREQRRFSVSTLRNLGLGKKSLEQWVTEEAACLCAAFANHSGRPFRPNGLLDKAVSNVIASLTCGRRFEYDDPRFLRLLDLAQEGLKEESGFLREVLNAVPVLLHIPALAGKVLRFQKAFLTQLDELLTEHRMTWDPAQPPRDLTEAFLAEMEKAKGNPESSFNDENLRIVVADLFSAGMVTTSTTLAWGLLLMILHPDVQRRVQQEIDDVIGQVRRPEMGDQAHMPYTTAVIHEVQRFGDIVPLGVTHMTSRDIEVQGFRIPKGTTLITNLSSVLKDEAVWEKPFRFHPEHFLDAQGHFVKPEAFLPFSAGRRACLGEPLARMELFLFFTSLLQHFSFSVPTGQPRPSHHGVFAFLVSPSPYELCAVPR

Cytochrome P450 2C19 = Cytochrome P450 2C19 (Homo sapiens, UniProt P33261); test: Cytochrome panel assay with activity outcomes. Panel member name: p450-cyp2c19 Compounds with AC50 equal or less than 10 uM are considered active; type: functional; settings: read-out: AC50
Sequence of Cytochrome P450 2C19 (P33261 whole entry): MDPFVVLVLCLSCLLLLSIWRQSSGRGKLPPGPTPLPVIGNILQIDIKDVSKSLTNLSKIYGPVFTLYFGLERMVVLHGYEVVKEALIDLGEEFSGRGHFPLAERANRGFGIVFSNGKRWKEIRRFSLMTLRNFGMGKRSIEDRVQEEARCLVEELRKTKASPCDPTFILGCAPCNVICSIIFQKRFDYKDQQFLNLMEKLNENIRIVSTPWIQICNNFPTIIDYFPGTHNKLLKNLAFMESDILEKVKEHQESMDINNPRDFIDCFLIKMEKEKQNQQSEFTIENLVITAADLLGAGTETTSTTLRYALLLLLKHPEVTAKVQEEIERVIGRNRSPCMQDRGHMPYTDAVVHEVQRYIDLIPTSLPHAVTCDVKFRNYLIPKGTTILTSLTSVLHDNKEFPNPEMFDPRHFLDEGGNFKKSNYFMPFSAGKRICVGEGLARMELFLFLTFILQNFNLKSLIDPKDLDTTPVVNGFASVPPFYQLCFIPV

[4] = biological target: T5, Heat shock factor protein 1 (Mus musculus, UniProt P38532); test: enhancement of HSF1-driven luciferase signal – cell-based, NIH3T3, luminescence, dose retest, confirmation (AID 435004); type: functional;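 also: stress induced by proteasome inhibitor MG132 added 30 min after compound; luciferase reporter driven by HSF1 response element in NIH3T3 cells; actives raise luminescence as potentiators of the MG132 stress response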
T5 sequence (P38532 whole entry): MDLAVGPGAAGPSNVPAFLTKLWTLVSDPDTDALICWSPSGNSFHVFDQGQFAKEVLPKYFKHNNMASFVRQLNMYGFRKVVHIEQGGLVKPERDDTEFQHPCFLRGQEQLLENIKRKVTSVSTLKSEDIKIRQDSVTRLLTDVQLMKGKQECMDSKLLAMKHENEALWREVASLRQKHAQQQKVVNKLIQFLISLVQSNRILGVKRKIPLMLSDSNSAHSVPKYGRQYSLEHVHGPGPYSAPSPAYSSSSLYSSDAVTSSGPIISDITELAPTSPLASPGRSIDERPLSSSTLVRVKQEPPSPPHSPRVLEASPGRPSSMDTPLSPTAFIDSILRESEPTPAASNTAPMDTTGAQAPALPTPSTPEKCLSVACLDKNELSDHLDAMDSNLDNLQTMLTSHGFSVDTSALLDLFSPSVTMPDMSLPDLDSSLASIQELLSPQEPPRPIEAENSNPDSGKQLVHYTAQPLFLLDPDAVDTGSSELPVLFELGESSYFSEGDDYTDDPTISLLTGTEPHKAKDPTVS

[5] = Trypanosoma cruzi growth suppression in host cells – NIH3T3 host cells, beta-gal luminescence, confirmation (AID 2044); type: functional, cell-based;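 also: intracellular parasites grown in NIH/3T3 mouse fibroblasts as host cells; luminescent beta-galactosidase reporter signal from transgenic T. cruzi replicating inside host cells; inhibitors lower the luminescence signal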
[6] = NIH3T3 cell viability loss – ATP luminescence, mouse fibroblasts, counter-screen, dose response (AID 2010); type: functional, cell-based;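 also: cells exposed to compound for about 90 hours before reading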

## O=C1C(Cl)=C(Nc2ccccc2O)C(=O)N1c1ccccc1
[1]
  EC50: 73 µM (inconclusive)
[2]
  EC50: > 300 µM (not active)

## O=C1NC(=O)N(c2ccc(Br)cc2)C(=O)/C1=C/NCCN1CCCCC1
[1]
  EC50: 106 µM (active)
[2]
  EC50: > 300 µM (not active)

## O=C(CSc1nnc(NC(=O)C2CC(=O)N(c3ccc(F)cc3)C2)s1)NCc1ccco1 (configuration not stated)
Streptococcus
  EC50: > 150 µM (not active)
Streptokinase A
  EC50: > 150 µM (not active)
[3]
  EC50: > 150 µM (not active)

## CC(=O)c1cccc(NC(=O)/C(=C\c2ccco2)NC(=O)c2cccs2)c1
Cytochrome P450 1A2
  AC50: 14.1 µM (inconclusive)
Cytochrome P450 2D6
  AC50: 14.1 µM (inconclusive)
Cytochrome P450 2C19
  AC50: 11.2 µM (inconclusive)

## Cc1noc(C)c1-c1nccc(NCc2cccnc2)n1
Cytochrome P450 2D6
  AC50: 20 µM (inconclusive)

## COc1cc(C2CC(c3cccnc3)=NN2c2ccc(F)cc2)cc(OC)c1OC (configuration not stated)
[4]
  EC50: 48.5 µM (active)

## Cn1c(C[C@@H](O)c2nc3ccccc3n2C)nc2ccccc21
Cytochrome P450 2D6
  AC50: 2.51 µM (inconclusive)

## COC(=O)CCC(=O)OC1(C)C(=O)C=C2C=C(c3ccsc3)OC=C2C1=O (configuration not stated)
[1]
  EC50: 26.7 µM (inconclusive)
[2]
  EC50: 36.8 µM (active)

## COC(=O)CCCC1=CC2=CC(=O)C(C)(OC(=O)c3cccs3)C(=O)C2=CO1 (configuration not stated)
[1]
  EC50: 16.5 µM (active)
[2]
  EC50: 14 µM (active)

## CCOC(=O)c1cc(C#N)c(SCc2ccc(C#N)cc2)nc1C
[4]
  EC50: 41.9 µM (active)

## CCCCC#Cc1ccccc1CC(=O)Nc1ccccc1
Cytochrome P450 2D6
  AC50: 12.6 µM (inconclusive)

## CC(=O)N1CCC2(CCN(Cc3ccccc3)CC2)CC1
Cytochrome P450 2D6
  AC50: 15.8 µM (inconclusive)

## CCCn1c(=N)c(C(=O)NCC2CCCO2)cc2c(=O)n3cccc(C)c3nc21 (configuration not stated)
[1]
  EC50: > 300 µM (not active)
[2]
  EC50: > 300 µM (not active)

## Cc1cc(=O)nc2c3ccccc3n(CC(=O)Nc3ccccc3Br)n12
[1]
  EC50: 103 µM (active)
[2]
  EC50: > 300 µM (not active)

## Nc1ccccc1Nc1ccc([N+](=O)[O-])cc1[N+](=O)[O-]
[4]
  EC50: > 260 µM (inactive)

## CC1CCN(c2nc(-c3ccccc3)cc(C(F)(F)F)n2)CC1
Streptococcus
  EC50: 9.37 µM (active)
Streptokinase A
  EC50: 9.36 µM (inconclusive)
[3]
  EC50: 3.73 µM (active)

## Cc1ccc(NC(S)=Nc2nc(CC(=O)Nc3ccccc3)cs2)cc1
Cytochrome P450 2D6
  AC50: 1.78 µM (inconclusive)

## CN(CC1CCCO1)S(=O)(=O)c1ccc(C(=O)Nc2ccc(F)cc2)cc1 (configuration not stated)
Streptococcus
  EC50: > 150 µM (not active)
Streptokinase A
  EC50: > 150 µM (not active)
[3]
  EC50: > 150 µM (not active)

## COc1cccc(-c2ccc3ncnc(NC4CC4)c3c2)c1
Cytochrome P450 2D6
  AC50: 25.1 µM (inconclusive)

## COC(=O)c1ccc(C23CC2(C(NP(=O)(c2ccccc2)c2ccccc2)c2ccccc2)C3)cc1 (configuration not stated)
Cytochrome P450 2D6
  AC50: 31.6 µM (inconclusive)

## OCCOc1ccc(C2=NCCO2)cc1
[1]
  EC50: > 300 µM (not active)
[2]
  EC50: > 300 µM (not active)

## Cc1cnc(CNc2ncnc3ccc(-c4ccccc4C)cc23)cn1
Cytochrome P450 2D6
  AC50: 20 µM (inconclusive)

## CC(C)(C)NC(=O)c1ccc2c3c(cccc13)CC2
[4]
  EC50: > 260 µM (inactive)

## CCOc1ccc(N2CC(=O)C(c3nc(O)c4ccccc4n3)=C2N)cc1
[4]
  EC50: > 260 µM (inactive)

## CCN1/C(=C2/SC(=S)N(NC(C)=O)C2=O)Sc2ccccc21
[1]
  EC50: > 300 µM (not active)
[2]
  EC50: 60.7 µM (active)

## COC(=O)c1c(C)[nH]c(C(=O)OCC(=O)N(CC(C)C)c2c(N)n(Cc3ccccc3)c(=O)[nH]c2=O)c1C
Streptococcus
  EC50: > 150 µM (not active)
Streptokinase A
  EC50: > 150 µM (not active)
[3]
  EC50: 5.83 µM (active)

## Cc1nc2ccccc2c2oc(C(=O)Nc3ccc4c(c3)OCCO4)cc12
[1]
  EC50: 25.9 µM (inconclusive)
[2]
  EC50: 16.6 µM (active)

## COc1ccc(CN(CC2CCC(C(=O)O)CC2)C(S)=Nc2cc(Cl)ccc2OC)cc1 (configuration not stated)
[4]
  EC50: > 260 µM (inactive)

## COc1ccc(S(=O)(=O)n2nc(OC(=O)c3ccccc3Br)cc2N)cc1
[4]
  EC50: 18.2 µM (active)

## CC(C)(C)c1nc(NC(=O)Nc2ccccc2)sc1Br
Streptococcus
  EC50: 6.77 µM (active)
Streptokinase A
  EC50: > 50 µM (not active)
[3]
  EC50: 4.45 µM (active)
[5]
  EC50: 4.22 µM (active)
[6]
  EC50: > 60 µM (not active)

## O=C(O)CSc1c(-c2ccccc2)[nH]c2ccccc12
[4]
  EC50: > 260 µM (inactive)

## COc1cc(C2NC(S)=NC(C)=C2C(=O)OC(C)C)ccc1OC(C)C (configuration not stated)
[1]
  EC50: > 300 µM (not active)
[2]
  EC50: > 300 µM (not active)

## NC(=O)[C@@H]1CCCN1Cc1c(C(=O)N2CCc3ccccc3C2)nc2ccc(Cl)cn12
[1]
  EC50: 47 µM (active)
[2]
  EC50: 61.7 µM (active)

## CN(C)c1ncc2nc(CCc3ccccc3)c(=O)n(-c3ccccc3)c2n1
Cytochrome P450 2D6
  AC50: 2.51 µM (inconclusive)
Cytochrome P450 2C19
  AC50: 39.8 µM (inconclusive)

## COc1cc2[nH]c(=S)n(Cc3ccco3)c(=O)c2cc1OC
[4]
  EC50: > 260 µM (inactive)

## Cc1ccccc1CC(=O)NC1CCCc2ccccc21 (configuration not stated)
[4]
  EC50: > 260 µM (inactive)

## O=C(NC1CCCN(Cc2ccccc2F)C1)c1cccs1 (configuration not stated)
[4]
  EC50: > 260 µM (inactive)

## COC(=O)/C(=C\C(=O)c1ccccc1)Nc1cccc(C(F)(F)F)c1
Cytochrome P450 2D6
  AC50: 25.1 µM (inconclusive)

## Cc1ccc(CC2S/C(=N\c3ccccc3)N(c3ccccc3)C2=O)cc1 (configuration not stated)
[4]
  EC50: > 260 µM (inactive)

## Cc1ccn2c(C(=O)N/N=C\c3ccccc3[N+](=O)[O-])c(C)nc2c1
[4]
  EC50: > 260 µM (inactive)

## Cc1ccc(/N=C2\SC(C(=O)NCCc3ccccc3)CC(=O)N2C)cc1C (configuration not stated)
[4]
  EC50: > 260 µM (inactive)

## O=[N+]([O-])c1cccc(/C=N/Nc2nc(N3CCCCC3)nc(N3CCCCC3)n2)c1
Streptococcus
  EC50: > 150 µM (not active)
Streptokinase A
  EC50: 39.4 µM (active)
[3]
  EC50: 33.5 µM (active)

## CCCCCCCCCCCCCC(=O)O[C@H](CC(=O)[O-])C[N+](C)(C)C
Cytochrome P450 2D6
  AC50: 31.6 µM (inconclusive)

## CC[N+](CC)(CCNC(=O)C(=O)NCC[N+](CC)(CC)Cc1ccccc1Cl)Cc1ccccc1Cl [AMBENONIUM]
Cytochrome P450 2D6
  AC50: 39.8 µM (inconclusive)
